These results are taken from patent EP4745135A1 (Gluetacs Therapeutics (Shanghai) Co., Ltd., priority 2023, dated 2025).

The target of the test is T1, human Cereblon WT GST-tagged protein (Homo sapiens, UniProt Q96SW2).
T1 construct: purchased CISBIO 64BDCRBNPEH
The experiment in a line: CRBN-binding affinity, HTRF (CEREBLON BINDING kit). Conditions: for inhibition at 0.5 µM: read-out: Inhibition Rate at 0.5 µM (%); for inhibition at 2 µM: read-out: Inhibition Rate at 2 µM (%). As to the method: The CEREBLON BINDING kits (specification: 10,000 tests; product number: Catalog # 64BDCRBNPEH; CISBIO company) was used to determine the CRBN binding ability of the compounds to be tested through a HTRF method (homogeneous time-resolved fluorescence). The specific methods are as follows: • 1. […] Specifically, diluent #9 (1X) solution was used as the diluent, and multiple concentration gradients were set. […] Then, 2.5 µL of human Cereblon WT GST-tagged protein solution was added to each well. Finally, 5 µL of the thoroughly mixed Thalidomide-Re reagent and GST Eu antibody working solution were added to each of the aforementioned wells. […] The blank control wells were sequentially added with 2.5 µL of diluent #9 (1X) solution, 2.5 µL of PROTAC binding buffer, and 5 µL of thoroughly mixed Thalidomide-Re reagent and GST Eu antibody working solution. • 4.
(In TR-FRET formats the signal depends on donor and acceptor labels being close together.)

T1 sequence (Q96SW2 whole entry): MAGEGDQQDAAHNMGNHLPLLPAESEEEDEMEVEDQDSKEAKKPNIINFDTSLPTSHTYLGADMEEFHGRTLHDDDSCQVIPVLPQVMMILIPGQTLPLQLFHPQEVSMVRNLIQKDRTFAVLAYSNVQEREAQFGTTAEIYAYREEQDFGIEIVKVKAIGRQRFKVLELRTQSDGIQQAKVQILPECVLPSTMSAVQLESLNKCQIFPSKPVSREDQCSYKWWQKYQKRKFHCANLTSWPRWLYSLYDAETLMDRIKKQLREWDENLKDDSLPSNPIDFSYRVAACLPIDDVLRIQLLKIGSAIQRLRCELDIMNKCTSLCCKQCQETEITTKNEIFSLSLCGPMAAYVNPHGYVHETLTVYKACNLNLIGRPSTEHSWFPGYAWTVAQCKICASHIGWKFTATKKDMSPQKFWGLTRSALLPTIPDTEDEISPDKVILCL

On to `Cc1cc(N2CCN(Cc3cccc4c3CN(C3CCC(=O)NC3=O)C4=S)CC2)ccn1` (stereo not drawn) [GT-08727, 3-(4-((4-(2-methylpyridin-4-yl)piperazin-1-yl)methyl)-1-thioxoisoindolin-2-yl)piperidine-2,6-dione], for which the inhibition at 0.5 µM is 53 to 60% and the inhibition at 2 µM was 80 to 100%.

Consider `O=C1CCC(N2Cc3c(CN4CCN(c5ccnc(F)c5F)CC4)cccc3C2=S)C(=O)N1` (stereo not drawn) [GT-08736, 3-(4-((4-(2,3-difluoropyridin-4-yl)piperazin-1-yl)methyl)-1-thioxoisoindolin-2-yl)piperidine-2,6-dione], for which the inhibition at 0.5 µM lay in the range of 60 to 80% and the inhibition at 2 µM was 80 to 100%.

As to `O=C1CCC(N2Cc3c(CN4CCC(c5noc6ccccc56)CC4)cccc3C2=S)C(=O)N1` (stereo not drawn) [GT-08816, 3-(4-((4-(benzo[d]isoxazol-3-yl)piperidin-1-yl)methyl)-1-thioxoisoindolin-2-yl)piperidine-2,6-dione], the inhibition at 0.5 µM was in the range of 60 to 80% and the inhibition at 2 µM lay in the range of 80 to 100%.

Take `O=C1CCC(N2Cc3c(CN4CCC(C5CCOc6cc(F)ccc65)CC4)cccc3C2=S)C(=O)N1` (stereo not drawn) [GT-08854, 3-(4-((4-(7-fluorochroman-4-yl)piperidin-1-yl)methyl)-1-thioxoisoindolin-2-yl)piperidine-2,6-dione]: the inhibition at 0.5 µM fell in the range of 40 to 53% and the inhibition at 2 µM was in the range of 80 to 100%.

In the case of `Cc1nc(N2CCN(Cc3cccc4c3CN(C3CCC(=O)NC3=O)C4=S)CC2)c2c(-c3ccccc3)csc2n1` (stereo not drawn) [GT-08921, 3-(4-((4-(2-methyl-5-phenylthieno[2,3-d]pyrimidin-4-yl)piperazin-1-yl)methyl)-1-thioxoisoindolin-2-yl)piperidine-2,6-dione], the inhibition at 0.5 µM was in the range of 30 to 40% and the inhibition at 2 µM is 80 to 100%.

Regarding `O=C1CCC(N2Cc3c(CN4CCN(c5nc6c(c(N7CCOCC7)n5)SCC6)CC4)cccc3C2=S)C(=O)N1` (stereo not drawn) [GT-08969, 3-(4-((4-(4-morpholino-6,7-dihydrothieno[3,2-d]pyrimidin-2-yl)piperazin-1-yl)methyl)-1-thioxoisoindolin-2-yl)piperidine-2,6-dione], the inhibition at 0.5 µM lay within 60 to 80% and the inhibition at 2 µM lay within 80 to 100%.

As to `O=C1CCC(N2Cc3c(CN4CCC(Nc5ccccc5-c5ccc(Cl)cc5)CC4)cccc3C2=S)C(=O)N1` (stereo not drawn) [GT-09034, 3-(4-((4-((4'-chloro-[1,1'-biphenyl]-2-yl)amino)piperidin-1-yl)methyl)-1-thioxoisoindolin-2-yl)piperidine-2,6-dione], the inhibition at 0.5 µM was 40 to 53% and the inhibition at 2 µM lay within 60 to 80%.

As to `O=C1CCC(N2Cc3c(CN4CCN(c5nc6c(c(N7CCNCC7)n5)SCC6)CC4)cccc3C2=S)C(=O)N1` (stereo not drawn) [GT-09035, 3-(4-((4-(4-(piperazin-1-yl)-6,7-dihydrothieno[3,2-d]pyrimidin-2-yl)piperazin-1-yl)methyl)-1-thioxoisoindolin-2-yl)piperidine-2,6-dione], the inhibition at 0.5 µM lay in the range of 60 to 80% and the inhibition at 2 µM was 80 to 100%.

For the molecule `O=C1CCC(N2Cc3c(CN4CCN(c5nc(N6CCNCC6)c6sccc6n5)CC4)cccc3C2=S)C(=O)N1` (stereo not drawn) [GT-09036, 3-(4-((4-(4-(piperazin-1-yl)thieno[3,2-d]pyrimidin-2-yl)piperazin-1-yl)methyl)-1-thioxoisoindolin-2-yl)piperidine-2,6-dione], the inhibition at 0.5 µM was in the range of 60 to 80% and the inhibition at 2 µM lay within 80 to 100%.

As for `O=C1CCC(N2Cc3cc(CN4CCN(c5ccncc5Br)CC4)ccc3C2=S)C(=O)N1` (stereo not drawn) [GT-09236, 3-(5-((4-(3-bromopyridin-4-yl)piperazin-1-yl)methyl)-1-thioxoisoindolin-2-yl)piperidine-2,6-dione], the inhibition at 0.5 µM fell in the range of 60 to 80% and the inhibition at 2 µM lay within 80 to 100%.

`O=C1CCC(N2Cc3cc(CN4CCN(c5ccncc5F)CC4)ccc3C2=S)C(=O)N1` (stereo not drawn) [GT-09237, 3-(5-((4-(3-fluoropyridin-4-yl)piperazin-1-yl)methyl)-1-thioxoisoindolin-2-yl)piperidine-2,6-dione]: the inhibition at 0.5 µM lay within 60 to 80% and the inhibition at 2 µM lay in the range of 80 to 100%.

On to `O=C1CCC(N2Cc3cc(CN4CCN(c5ccnc(Cl)c5F)CC4)ccc3C2=S)C(=O)N1` (stereo not drawn) [GT-09239, 3-(5-((4-(2-chloro-3-fluoropyridin-4-yl)piperazin-1-yl)methyl)-1-thioxoisoindolin-2-yl)piperidine-2,6-dione], for which the inhibition at 0.5 µM lay in the range of 60 to 80% and the inhibition at 2 µM is 80 to 100%.

On to `O=C1CCC(N2Cc3cc(CN4CCN(c5c(F)cncc5Cl)CC4)ccc3C2=S)C(=O)N1` (stereo not drawn) [GT-09243, 3-(5-((4-(3-chloro-5-fluoropyridin-4-yl)piperazin-1-yl)methyl)-1-thioxoisoindolin-2-yl)piperidine-2,6-dione], for which the inhibition at 0.5 µM was in the range of 60 to 80% and the inhibition at 2 µM lay in the range of 80 to 100%.

In the case of `O=C1CCC(N2Cc3cc(CN4CCN(c5c(Cl)cncc5Cl)CC4)ccc3C2=S)C(=O)N1` (stereo not drawn) [GT-09246, 3-(5-((4-(3,5-dichloropyridin-4-yl)piperazin-1-yl)methyl)-1-thioxoisoindolin-2-yl)piperidine-2,6-dione], the inhibition at 0.5 µM fell in the range of 80 to 100% and the inhibition at 2 µM lay within 80 to 100%.

In the case of `O=C1CCC(N2Cc3cc(CN4CCN(c5cc(Cl)nnc5Cl)CC4)ccc3C2=S)C(=O)N1` (stereo not drawn) [GT-09248, 3-(5-((4-(3,6-dichloropyridazin-4-yl)piperazin-1-yl)methyl)-1-thioxoisoindolin-2-yl)piperidine-2,6-dione], the inhibition at 0.5 µM lay in the range of 60 to 80% and the inhibition at 2 µM lay within 80 to 100%.

In the case of `O=C1CCC(N2Cc3cc(CN4CCN(c5ncncn5)CC4)ccc3C2=S)C(=O)N1` (stereo not drawn) [GT-09249, 3-(5-((4-(1,3,5-triazin-2-yl)piperazin-1-yl)methyl)-1-thioxoisoindolin-2-yl)piperidine-2,6-dione], the inhibition at 0.5 µM was 60 to 80% and the inhibition at 2 µM fell in the range of 80 to 100%.

Turning to `O=C1CCC(N2Cc3cc(CN4CCN(c5ccc(Cl)nn5)CC4)ccc3C2=S)C(=O)N1` (stereo not drawn) [GT-09251, 3-(5-((4-(6-chloropyridazin-3-yl)piperazin-1-yl)methyl)-1-thioxoisoindolin-2-yl)piperidine-2,6-dione], the inhibition at 0.5 µM lay in the range of 60 to 80% and the inhibition at 2 µM was 80 to 100%.

Take `O=C1CCC(N2Cc3cc(CN4CCN(c5cnccn5)CC4)ccc3C2=S)C(=O)N1` (stereo not drawn) [GT-09253, 3-(5-((4-(pyrazin-2-yl)piperazin-1-yl)methyl)-1-thioxoisoindolin-2-yl)piperidine-2,6-dione]: the inhibition at 0.5 µM was in the range of 60 to 80% and the inhibition at 2 µM was 80 to 100%.

`O=C1CCC(N2Cc3cc(CN4CCN(c5ncnc(Cl)c5Cl)CC4)ccc3C2=S)C(=O)N1` (stereo not drawn) [GT-09254, 3-(5-((4-(5,6-dichloropyrimidin-4-yl)piperazin-1-yl)methyl)-1-thioxoisoindolin-2-yl)piperidine-2,6-dione]: the inhibition at 0.5 µM is 60 to 80% and the inhibition at 2 µM was in the range of 80 to 100%.

For the molecule `O=C1CCC(N2Cc3cc(CN4CCN(c5cnnc(Cl)c5Cl)CC4)ccc3C2=S)C(=O)N1` (stereo not drawn) [GT-09255, 3-(5-((4-(5,6-dichloropyridazin-4-yl)piperazin-1-yl)methyl)-1-thioxoisoindolin-2-yl)piperidine-2,6-dione], the inhibition at 0.5 µM is 80 to 100% and the inhibition at 2 µM is 80 to 100%.

On to `O=C1CCC(N2Cc3cc(CN4CCC(c5ccon5)CC4)ccc3C2=S)C(=O)N1` (stereo not drawn) [GT-09256, 3-(5-((4-(isoxazol-3-yl)piperidin-1-yl)methyl)-1-thioxoisoindolin-2-yl)piperidine-2,6-dione], for which the inhibition at 0.5 µM fell in the range of 60 to 80% and the inhibition at 2 µM is 80 to 100%.

Take `O=C1CCC(N2Cc3cc(CN4CCN(c5noc6cc(F)ccc56)CC4)ccc3C2=S)C(=O)N1` (stereo not drawn) [GT-09257]: the inhibition at 0.5 µM fell in the range of 60 to 80% and the inhibition at 2 µM is 80 to 100%.

As for `O=C1CCC(N2Cc3cc(CN4CCN(c5noc6ccncc56)CC4)ccc3C2=S)C(=O)N1` (stereo not drawn) [GT-09258, 3-(5-((4-(isoxazolo[4,5-c]pyridin-3-yl)piperazin-1-yl)methyl)-1-thioxoisoindolin-2-yl)piperidine-2,6-dione], the inhibition at 0.5 µM fell in the range of 60 to 80% and the inhibition at 2 µM fell in the range of 80 to 100%.

As to `O=C1CCC(N2Cc3cc(CN4CCN(c5cccnn5)CC4)ccc3C2=S)C(=O)N1` (stereo not drawn) [GT-09265, 3-(5-((4-(pyridazin-3-yl)piperazin-1-yl)methyl)-1-thioxoisoindolin-2-yl)piperidine-2,6-dione], the inhibition at 0.5 µM was in the range of 60 to 80% and the inhibition at 2 µM lay in the range of 80 to 100%.

On to `O=C1CCC(N2Cc3cc(CN4CCC(N5CCOc6cc(F)ccc65)CC4)ccc3C2=S)C(=O)N1` (stereo not drawn) [GT-09272, 3-(5-((4-(7-fluoro-2,3-dihydro-4H-benzo[b][1,4]oxazin-4-yl)piperidin-1-yl)methyl)-1-thioxoisoindolin-2-yl)piperidine-2,6-dione], for which the inhibition at 0.5 µM was in the range of 60 to 80% and the inhibition at 2 µM lay in the range of 80 to 100%.

In the case of `O=C1CCC(N2Cc3cc(CN4CCC(N5C(=O)COc6cc(F)ccc65)CC4)ccc3C2=S)C(=O)N1` (stereo not drawn) [GT-09273, 3-(5-((4-(7-fluoro-3-oxo-2,3-dihydro-4H-benzo[b][1,4]oxazin-4-yl)piperidin-1-yl)methyl)-1-thioxoisoindolin-2-yl)piperidine-2,6-dione], the inhibition at 0.5 µM is 60 to 80% and the inhibition at 2 µM was 80 to 100%.

`O=C1CCC(N2Cc3cc(CN4CCC(c5cccc6cnccc56)CC4)ccc3C2=S)C(=O)N1` (stereo not drawn) [GT-09277, 3-(5-((4-(isoquinolin-5-yl)piperidin-1-yl)methyl)-1-thioxoisoindolin-2-yl)piperidine-2,6-dione]: the inhibition at 0.5 µM was 40 to 53% and the inhibition at 2 µM fell in the range of 80 to 100%.

One may read the inhibition as the change of the read-out against control, counted positive when it falls.
